Earlier results in patent publication US5747458A, “Urokinase receptor ligands” (Chiron Corporation, priority 1995, dated 1998).

Experiments:
[1] = biological target: uPA:uPAR interaction (Homo sapiens, UniProt Q03405)
[2] = biological target: uPAR (Homo sapiens, UniProt Q03405)
uPAR, sequence (Q03405 23-335, species assumed): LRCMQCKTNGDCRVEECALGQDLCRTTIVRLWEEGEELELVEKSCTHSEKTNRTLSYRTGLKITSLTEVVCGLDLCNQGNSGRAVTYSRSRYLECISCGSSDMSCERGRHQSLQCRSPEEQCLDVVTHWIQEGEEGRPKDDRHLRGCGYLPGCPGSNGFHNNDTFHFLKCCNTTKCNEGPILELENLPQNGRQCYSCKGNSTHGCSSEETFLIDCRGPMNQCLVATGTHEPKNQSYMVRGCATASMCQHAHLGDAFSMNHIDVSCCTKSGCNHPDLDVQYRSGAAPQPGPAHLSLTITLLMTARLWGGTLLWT

uPA:uPAR interaction, sequence (Q03405 23-305 limits assumed): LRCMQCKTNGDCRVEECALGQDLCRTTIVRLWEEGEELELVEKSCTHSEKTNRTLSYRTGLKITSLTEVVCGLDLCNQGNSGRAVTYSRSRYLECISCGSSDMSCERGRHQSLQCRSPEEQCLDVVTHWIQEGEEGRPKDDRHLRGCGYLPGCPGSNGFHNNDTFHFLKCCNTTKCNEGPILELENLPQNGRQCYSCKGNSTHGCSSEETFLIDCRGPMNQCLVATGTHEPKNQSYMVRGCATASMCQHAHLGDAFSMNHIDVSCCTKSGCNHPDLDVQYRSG

O=S(=O)(O)c1cccc2cccc(Nc3ccccc3)c12 [8-anilinonaphthalene sulfonic acid]
effective concentration for inhibiting the uPA:uPAR interaction [1]: effective only at micromolar concentrations

Cc1ccc(C(=O)Nc2ccc(S(=O)(=O)O)c3cc(S(=O)(=O)O)cc(S(=O)(=O)O)c23)cc1NC(=O)c1cccc(NC(=O)Nc2cccc(C(=O)Nc3cc(C(=O)Nc4ccc(S(=O)(=O)O)c5cc(S(=O)(=O)O)cc(S(=O)(=O)O)c45)ccc3C)c2)c1 [suramin]
effective concentration for inhibiting the uPA:uPAR interaction [1]: effective only at micromolar concentrations

uPA12-32: critical binding domain alone, residues 12-32 of the EGF-like domain of uPA (DCLNGGTCVSNKYFSNIHWCN; UniProt P00749 32-52, looked up, fragment)
affinity relative to intact ATF (fold less) ([2]; compared with intact ATF): about 100 fold
Kd ([2]; read-out: affinity for uPAR): 40 nM
